Measured values: patent US11939344B2, “Spirocyclic compounds” (ASTRAZENECA AB, priority 2021, dated 2024)

Key:
HCT116 WT cells [1] = test: Cell proliferation assay (Alamar Blue), MTAP WT cells; type: cell-based; conditions: Homo sapiens, HCT-116, 120 h, 5 days
Protocol: (§1) Cell Proliferation Assays:
(§2) A day 0 plate is created in parallel but not dosed, after plating 4 μl of Alamar Blue (Thermo #DAL1100) and incubate for 3 h at 37 C, 5% CO2.
(§3) The dosed cell plates were then incubated for 5 days at 37° C. before adding Alamar blue and being read in the Envision following same protocol as for first plate.

HCT116 KO-MTAP cells [2] = test: PRMT5 cell SDMA assay, MTAP KO cells; type: cell-based; conditions: Homo sapiens
HCT116 KO-MTAP cells [3] = test: Cell proliferation assay (Alamar Blue), MTAP KO cells; type: cell-based; conditions: Homo sapiens
Protocol: as §1, §2, §3

HCT116 WT cells [4] = test: PRMT5 cell SDMA assay, MTAP WT cells; type: cell-based; conditions: Homo sapiens
[5] = molecular target: human heterooctameric PRMT5:MEP50 enzyme complex (Homo sapiens, UniProt O14744); test: biochemical
Sequence of human heterooctameric PRMT5:MEP50 enzyme complex (O14744 whole entry): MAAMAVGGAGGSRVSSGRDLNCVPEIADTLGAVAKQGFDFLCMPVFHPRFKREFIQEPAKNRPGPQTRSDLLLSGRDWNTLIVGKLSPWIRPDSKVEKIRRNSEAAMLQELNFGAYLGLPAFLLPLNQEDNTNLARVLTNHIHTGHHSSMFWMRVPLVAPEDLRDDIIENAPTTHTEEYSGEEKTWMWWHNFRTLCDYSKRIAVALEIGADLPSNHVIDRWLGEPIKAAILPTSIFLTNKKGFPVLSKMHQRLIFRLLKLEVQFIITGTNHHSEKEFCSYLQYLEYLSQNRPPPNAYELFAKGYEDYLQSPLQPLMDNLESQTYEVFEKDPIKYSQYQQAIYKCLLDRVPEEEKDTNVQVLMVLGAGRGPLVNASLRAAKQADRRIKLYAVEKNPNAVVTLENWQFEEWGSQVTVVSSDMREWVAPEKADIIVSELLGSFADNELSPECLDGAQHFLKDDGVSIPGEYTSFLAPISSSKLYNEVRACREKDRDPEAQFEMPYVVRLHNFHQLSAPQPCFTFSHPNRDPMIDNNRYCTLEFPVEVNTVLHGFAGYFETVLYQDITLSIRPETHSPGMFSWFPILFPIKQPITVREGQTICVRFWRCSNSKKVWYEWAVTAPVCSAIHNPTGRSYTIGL
Sequence of human heterooctameric PRMT5:MEP50 enzyme complex (Q9BQA1 whole entry partner): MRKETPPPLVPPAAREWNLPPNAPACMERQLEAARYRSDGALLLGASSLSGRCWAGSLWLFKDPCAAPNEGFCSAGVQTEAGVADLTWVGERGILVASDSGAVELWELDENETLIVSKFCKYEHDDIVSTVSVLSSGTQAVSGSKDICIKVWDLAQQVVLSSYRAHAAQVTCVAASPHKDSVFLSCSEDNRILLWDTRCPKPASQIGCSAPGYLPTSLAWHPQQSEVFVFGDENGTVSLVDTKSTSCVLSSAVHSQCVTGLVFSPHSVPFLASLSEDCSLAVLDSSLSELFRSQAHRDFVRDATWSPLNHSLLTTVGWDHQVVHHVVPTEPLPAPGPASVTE
Protocol: MTase-GIlo™ PRMT5 Luminescence Assays (PRMT5 Enzyme Assays)
An Mtase-Glo™ methyltransferase Luminescence assay was employed to monitor the conversion of S-Adenosyl methionine (SAM) to S-Adenosyl Homocysteine (SAH) by recombinant PRMT5:MEP50 enzyme complex in the presence or absence of the 5′-Methylthioadenosine (MTA). […] The reaction buffer contained 20 mM Bicine (pH 7.60), 25 mM NaCl, 1 mM DTT and 0.1% (w/v) CHAPS.
All wells were backfilled with the appropriate volume of DMSO to achieve a final concentration of 1% v/v in a 3 μl final assay volume.
After 5 h incubation in room temperature, 1 μL of 0.5% (v/v) TFA was added to each well to quench the methylation reaction.
Data was analysed and the IC50 values were calculated using the Genedata Screener® software.

[6] = HCT-116, 120 h, HCT116 MTAP KO, 5 days, read-out: Cell proliferation IC50 (μM) (MTAP KO)
[7] = HCT-116, column 6, read-out: Cell proliferation IC50 in MTAP KO cells
[8] = HCT-116, HCT116 MTAP KO, 48 hours, read-out: Cell SDMA IC50 (μM) (MTAP KO)
[9] = HCT-116, HCT116 MTAP WT, 48 hours, read-out: Cell SDMA IC50 (μM) (MTAP WT)

IC50 (HCT116 WT cells [1]) | IC50 (HCT116 KO-MTAP cells [3]; [6]) | IC50 (HCT116 KO-MTAP cells [2]; HCT-116, column 4, read-out: Cell SDMA IC50, MTAP knock out HCT116 cells) | IC50 (HCT116 KO-MTAP cells [2]; [8]) | IC50 [5] | IC50 (HCT116 WT cells [4]; HCT-116, column 5, read-out: Cell SDMA IC50, HCT116 wild type cells) | IC50 (HCT116 WT cells [4]; [9]) | Structure (SMILES) | IC50 (HCT116 KO-MTAP cells [2]; HCT-116, 48 h, read-out: Cell SDMA IC50 (μM) (MTAP KO)) | IC50 (HCT116 KO-MTAP cells [2]; HCT-116, read-out: Cell SDMA IC50, MTAP knock out HCT116 cells) | IC50 (HCT116 KO-MTAP cells [3]; [7]) | IC50 (HCT116 WT cells [4]; HCT-116, 48 h, read-out: Cell SDMA IC50 (μM) (MTAP WT)) | IC50 (HCT116 WT cells [4]; HCT-116, read-out: Cell SDMA IC50, HCT116 wild type cells)
> 30 µM | 0.32 µM | 0.013 µM | 0.013 µM | 0.061 µM | 0.56 µM | 0.56 µM | C#CCN1CC[C@@]2(C1=O)c1ccc(F)cc1C(=O)N2Cc1cc2nc(N)c(F)cc2[nH]1 [Example 3, (S)-2-((5-Amino-6-fluoro-1H-pyrrolo[3,2-b]pyridin-2-yl)methyl)-5-fluoro-1′-(prop-2-yn-1-yl)spiro[isoindoline-1,3′-pyrrolidine]-2′,3-dione] | – | – | 0.32 µM | – | –
> 30 µM | 1.9 µM | – | 0.025 µM | – | – | > 1.5 µM | Nc1nc2cc(CN3C(=O)c4cc(F)ccc4[C@]34CCN(CC(F)F)C4=O)[nH]c2cc1F [Example 8, (S)-2-((5-Amino-6-fluoro-1H-pyrrolo[3,2-b]pyridin-2-yl)methyl)-1′-(2,2-difluoroethyl)-5-fluorospiro[isoindoline-1,3′-pyrrolidine]-2′,3-dione] | – | – | – | – | –
> 30 µM | 1.6 µM | – | 0.023 µM | – | – | 1.7 µM | CN1CC[C@@]2(C1=O)c1ccc(F)cc1C(=O)N2Cc1cc2nc(N)c(F)cc2[nH]1 [Example 10, (S)-2-((5-Amino-6-fluoro-1H-pyrrolo[3,2-b]pyridin-2-yl)methyl)-5-fluoro-1′-methylspiro[isoindoline-1,3′-pyrrolidine]-2′,3-dione] | – | – | – | – | –
2.3 µM | 0.29 µM | – | 0.0031 µM | – | – | 0.093 µM | CC1(CN2CC[C@@]3(C2=O)c2ccc(F)cc2C(=O)N3Cc2cc3nc(N)cc(C#N)c3[nH]2)CC1 [Example 26, (S)-5-Amino-2-((5-fluoro-1′-((1-methylcyclopropyl)methyl)-2′,3-dioxospiro[isoindoline-1,3′-pyrrolidin]-2-yl)methyl)-1H-pyrrolo[3,2-b]pyridine-7-carbonitrile] | – | – | – | – | –
> 30 µM | 0.36 µM | – | 0.0047 µM | – | – | 0.17 µM | Nc1nc2cc(CN3C(=O)c4cc(F)ccc4[C@]34CCN(CCOC(F)(F)F)C4=O)[nH]c2cc1Cl [Example 27, (S)-2-((5-Amino-6-chloro-1H-pyrrolo[3,2-b]pyridin-2-yl)methyl)-5-fluoro-1′-(2-(trifluoromethoxy)ethyl)spiro[isoindoline-1,3′-pyrrolidine]-2′,3-dione] | – | – | – | – | –
1.4 µM | 0.13 µM | – | 0.0028 µM | – | – | 0.071 µM | Cc1cc(N)nc2[nH]c(CN3C(=O)c4cc(F)ccc4[C@]34CCN(Cc3cc(F)c(F)cc3F)C4=O)cc12 [Example 28, (S)-2-((6-Amino-4-methyl-1H-pyrrolo[2,3-b]pyridin-2-yl)methyl)-5-fluoro-1′-(2,4,5-trifluorobenzyl)spiro[isoindoline-1,3′-pyrrolidine]-2′,3-dione] | – | – | – | – | –

Structure (SMILES) | IC50 (HCT116 WT cells [1]) | IC50 (HCT116 KO-MTAP cells [3]; [6]) | IC50 (HCT116 KO-MTAP cells [2]; HCT-116, column 4, read-out: Cell SDMA IC50, MTAP knock out HCT116 cells) | IC50 (HCT116 KO-MTAP cells [2]; [8]) | IC50 [5] | IC50 (HCT116 WT cells [4]; HCT-116, column 5, read-out: Cell SDMA IC50, HCT116 wild type cells) | IC50 (HCT116 WT cells [4]; [9]) | IC50 (HCT116 KO-MTAP cells [2]; HCT-116, 48 h, read-out: Cell SDMA IC50 (μM) (MTAP KO)) | IC50 (HCT116 KO-MTAP cells [2]; HCT-116, read-out: Cell SDMA IC50, MTAP knock out HCT116 cells) | IC50 (HCT116 KO-MTAP cells [3]; [7]) | IC50 (HCT116 WT cells [4]; HCT-116, 48 h, read-out: Cell SDMA IC50 (μM) (MTAP WT)) | IC50 (HCT116 WT cells [4]; HCT-116, read-out: Cell SDMA IC50, HCT116 wild type cells)
Nc1nc2cc(CN3C(=O)c4cc(F)ccc4[C@]34CCN(Cc3ccc(F)cc3)C4=O)[nH]c2cc1F [Example 1, (S)-2-((5-Amino-6-fluoro-1H-pyrrolo[3,2-b]pyridin-2-yl)methyl)-5-fluoro-1′-(4-fluorobenzyl)spiro[isoindoline-1,3′-pyrrolidine]-2′,3-dione] | > 30 µM | 0.16 µM | – | – | – | – | – | 0.0053 µM | 0.0053 µM | 0.16 µM | 0.29 µM | 0.29 µM
